Earlier results, collected in patent US20250387420A1, “Prevention of Nausea and Vomiting from Antibody-Drug Conjugates and other Long-Acting Emetogenics” (Helsinn Healthcare SA, priority 2024, published 2025).

What was measured:
[1] = molecular target: NK1 receptor (Homo sapiens, UniProt P25103)
[2] = 48 hours after a single 300 mg oral netupitant dose; Gilmore and Bernareggi 2019
[3] = test system: patients receiving cisplatin-based chemotherapy; settings: 168 hours following highly emetogenic cisplatin-based therapy

NK1 receptor, sequence (P25103 whole entry): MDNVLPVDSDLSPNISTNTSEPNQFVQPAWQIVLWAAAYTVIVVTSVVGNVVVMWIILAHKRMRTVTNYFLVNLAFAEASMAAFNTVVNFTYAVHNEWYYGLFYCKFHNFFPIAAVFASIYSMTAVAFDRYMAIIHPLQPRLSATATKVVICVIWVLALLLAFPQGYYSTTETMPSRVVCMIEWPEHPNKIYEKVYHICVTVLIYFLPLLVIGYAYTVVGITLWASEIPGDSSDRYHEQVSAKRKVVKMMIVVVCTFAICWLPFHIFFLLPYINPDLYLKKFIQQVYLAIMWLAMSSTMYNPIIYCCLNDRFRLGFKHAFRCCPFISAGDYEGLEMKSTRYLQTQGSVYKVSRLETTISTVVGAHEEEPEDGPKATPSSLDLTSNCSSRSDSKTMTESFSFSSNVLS

Row | Structure (SMILES) | NK1 receptor occupancy rates necessary for efficacy ([1]; Bergstrom et al. 2004) | plasma concentration [2] | comparative efficacy versus aprepitant [3] | plasma concentration at which 90% receptor occupancy is achieved ([1]; Spinelli et al. 2013)
1 | C[C@@H](O[C@H]1OCCN(Cc2n[nH]c(=O)[nH]2)[C@H]1c1ccc(F)cc1)c1cc(C(F)(F)F)cc(C(F)(F)F)c1 [aprepitant] | > 90% |  |  | 
2 | Cc1ccccc1-c1cc(N2CCN(C)CC2)ncc1N(C)C(=O)C(C)(C)c1cc(C(F)(F)F)cc(C(F)(F)F)c1 [netupitant] |  | below 100 ng/mL | favorable comparative efficacy to aprepitant | 225 ng/mL
